Where “and” joins values, the source holds several entries; their conditions need not be identical. Equal values may be shown once. After the bases stand the sugars from the 5' end (letter, count) and the backbone: PS all phosphorothioate, else s phosphorothioate and o phosphodiester by linkage. Methylation of C is not given here. e = 2'-O-(2-methoxyethyl) (MOE); k = constrained ethyl (cEt); d = 2'-deoxy (DNA); m = 2'-O-methyl
Tests used:
[1] = target: IRF4; settings: ASO
[2] = target: HSD17B13; settings: ASO, HepaRG, 1 µM

## GATGTATACCAACGAC (sugars k3 d10 k3, PS)
[1]; SK-MEL-28, 4 µM
  target mRNA inhibition: 68%

## CTTGGCTGTGGGATGC (sugars k3 d10 k3, PS)
[1]; MM.1R, 1 µM
  target mRNA inhibition: 21%

## TGAAATGTCAAACCCT (sugars k3 d10 k3, PS)
[1]; SK-MEL-28, 4 µM
  target mRNA inhibition: 54%

## ACCCAGTGGTAGGTAG (sugars k3 d10 k3, PS)
[1]; SK-MEL-28, 4 µM
  target mRNA inhibition: 30%

## TGAAAGACCCCAGCTA (sugars k3 d10 k3, PS)
[1]; SK-MEL-28, 4 µM
  target mRNA inhibition: 4%

## TCTATAGTGTTCCAGG (sugars kkddddddddddkeke, PS)
[1]; MM.1R, 0.074 µM
  target mRNA inhibition: 15%
[1]; MM.1R, 0.222 µM
  target mRNA inhibition: 32%
[1]; MM.1R, 0.666 µM
  target mRNA inhibition: 58%
[1]; MM.1R, 1 µM
  target mRNA inhibition: 66%
[1]; MM.1R, 2 µM
  target mRNA inhibition: 83%

## GTAGTATGAGAAACGG (sugars kkdddddddddkekek, PS)
[1]; MM.1R, 1 µM
  target mRNA inhibition: 50%

## ACCGACTCTTTTTTTA (sugars k3 d10 k3, PS)
[1]; MM.1R, 1 µM
  target mRNA inhibition: -2%

## TGGCACAGTCTTTTCG (sugars k3 d10 k3, PS)
[1]; SK-MEL-28, 4 µM
  target mRNA inhibition: 28%

## GCATAAAAGGTTCCTG (sugars k4 d8 k4, PS)
[1]; MM.1R, 0.074 µM
  target mRNA inhibition: 0%
[1]; MM.1R, 0.222 µM
  target mRNA inhibition: -3%
[1]; MM.1R, 0.666 µM
  target mRNA inhibition: -7%
[1]; MM.1R, 2 µM
  target mRNA inhibition: 3%
[1]; SK-MEL-28, 0.185 µM
  target mRNA inhibition: 4% and 9% and 17%
[1]; SK-MEL-28, 4 µM
  target mRNA inhibition: 47%
[1]; SK-MEL-28, 5 µM
  target mRNA inhibition: 34% and 37% and 50%
[1]; SK-MEL-28, 15 µM
  target mRNA inhibition: 75% and 72% and 89%

## CAGTGATGTCAGGTTT (sugars k2 d9 e3 k2, PS)
[1]; MM.1R, 0.074 µM
  target mRNA inhibition: 0%
[1]; MM.1R, 0.222 µM
  target mRNA inhibition: 12%
[1]; MM.1R, 0.666 µM
  target mRNA inhibition: 34%
[1]; MM.1R, 1 µM
  target mRNA inhibition: 56%
[1]; MM.1R, 2 µM
  target mRNA inhibition: 57%

## CGCAAGTCTACAGCCC (sugars k3 d10 k3, PS)
[1]; MM.1R, 0.0625 µM
  target mRNA inhibition: 0%
[1]; MM.1R, 0.074 µM
  target mRNA inhibition: -7%
[1]; MM.1R, 0.222 µM
  target mRNA inhibition: -9%
[1]; MM.1R, 0.25 µM
  target mRNA inhibition: 1%
[1]; MM.1R, 0.666 µM
  target mRNA inhibition: -9%
[1]; MM.1R, 1 µM
  target mRNA inhibition: 6%
[1]; MM.1R, 2 µM
  target mRNA inhibition: 8%
[1]; MM.1R, 4 µM
  target mRNA inhibition: 12%
[1]; SK-MEL-28, 4 µM
  target mRNA inhibition: 59%

## CGACAGTCCGGTTAGC (sugars k3 d10 k3, PS)
[1]; SK-MEL-28, 4 µM
  target mRNA inhibition: 11%

## TGTAAGGTCTGAGAGC (sugars k3 d10 k3, PS)
[1]; SK-MEL-28, 4 µM
  target mRNA inhibition: 25%

## ACCAACGACAGCATAG (sugars k3 d10 k3, PS)
[1]; SK-MEL-28, 4 µM
  target mRNA inhibition: 67%

## GTATTTGGGTGTTCTG (sugars k3 d10 k3, PS)
[2]
  target mRNA inhibition: 36%

## GCATUAATGCCACCCT (sugars k3 d1 m1 d8 k3, PS)
[2]
  target mRNA inhibition: 32%

## GACAACAGAGTTCTGT (sugars k3 d10 k3, PS)
[2]
  target mRNA inhibition: 9%

## GTTAGCAGCTAAAATC (sugars k3 d10 k3, PS)
[2]
  target mRNA inhibition: 45%

## AAAAAGCTTATCGAGT (sugars k3 d10 k3, PS)
[2]
  target mRNA inhibition: 8%

## GTGCCAAACCAATGTT (sugars k3 d1 m1 d8 k3, PS)
[2]
  target mRNA inhibition: 30%

## AAGGAAGAGGCTAGGG (sugars k3 d10 k3, PS)
[2]
  target mRNA inhibition: 57%

## AGTTATTAGAAGTCAG (sugars k3 d10 k3, PS)
[2]
  target mRNA inhibition: 54%

## ATGAGGTTTTGATACC (sugars k3 d10 k3, PS)
[2]
  target mRNA inhibition: 47%

## GCCTTGAATAGCAAGC (sugars k3 d10 k3, PS)
[2]
  target mRNA inhibition: 32%

## CTCATTATAAGCTAAC (sugars k3 d10 k3, PS)
[2]
  target mRNA inhibition: 13%

## ACCTAATAACTACATG (sugars k3 d10 k3, PS)
[2]
  target mRNA inhibition: 0%

## TTTCUTATGTAATAGC (sugars k3 d1 m1 d8 k3, PS)
[2]
  target mRNA inhibition: 50%

## AGTAGGAGTAGATGAT (sugars k3 d10 k3, PS)
[2]
  target mRNA inhibition: 0%

## ACATACCACTCTTCTC (sugars k3 d10 k3, PS)
[2]
  target mRNA inhibition: 35%

## ACGATGTGGCCATGAT (sugars k3 d10 k3, PS)
[2]
  target mRNA inhibition: 52%

## AAACTAGTGGTAATGG (sugars k3 d10 k3, PS)
[2]
  target mRNA inhibition: 47%

## TATAACTGAGCTAGAC (sugars k3 d10 k3, PS)
[2]
  target mRNA inhibition: 53%

## CATCTCTGGGACCAAG (sugars k3 d9 k3 e1, PS)
[2]
  target mRNA inhibition: 42%

## GAACAATATGGGATGA (sugars k3 d1 m1 d8 k3, PS)
[2]
  target mRNA inhibition: 50%

## CAGGGTGGTAACGGTG (sugars k3 d10 k3, PS)
[2]
  target mRNA inhibition: 55%
